Assay results from patent publication US8729103B2, “Silent desensitizers of neuronal nAChR and methods of use thereof” (priority 2008, dated 2014).

Tests used:
[1] = in vivo; cited from earlier work
[2] = stability of the isolated HCl salt on exposure to air; format: physicochemical; details: white solid, larger scale
From the text: A gram-scale synthesis of sazetidine A is outlined in FIG. 1a. The Boc-protected azidityl methyl alcohol 2 and 3-bromo-5-hydroxy pyridine (3) are both commercially available. Treatment with PPh3 and DEAD according to the Mitsunobu protocol formed ether derivative 4 in 70% yield. Palladium-mediated coupling of the bromo-substituted pyridine 4 with 5-hexyn-1-ol under modified Sonogashira conditions furnished Boc-protected sazetidine A in 73% yield. Deprotection of the Boc-group with HCl was expected to give sazetidine A in salt form as published in the literature.

α4β2 nAChRs [3] = biological target: T1, α4β2 nAChRs (Homo sapiens, UniProt P17787+P43681); details: added alone; cited from earlier work
T1 construct: expressed in transfected cells; host or cells: SH-EP1 (SH-EP1-pcDNA-hα4β2)

α4β2 nAChRs [4] = biological target: T2, α4β2 nAChRs (Rattus norvegicus, UniProt P09483+P12390); assay: [3H]epibatidine competition binding, α4β2 nAChR; details: triazole in place of alkyne
T2 construct: expressed in transfected cells; host or cells: HEK293 (KXα4β2)
Procedure: The cell lines KXα3β4R2, expressing rat α3β4 nAChRs, and KXα4β2, expressing rat α4β2 nAChRs, were established previously by stably transfecting human embryonic kidney 293 cells with combinations of rat nAChR subunit genes. These cell lines are maintained in minimum essential medium supplemented with 10% fetal bovine serum, 100 units/mL penicillin G, […] streptomycin, and 0.7 mg/mL G418 (Geneticin) at 37° C. with 5% CO2 in a humidified incubator. The cell line SH-EP1-pcDNA-hα4β2, expressing human α4β2 nAChRs, was described previously and are available. […]
The Ki values of compounds for binding to α3β4, α4β2 and other nAChR sub-types will be measured by competition experiments with [3H]epibatidine or other labeled ligands. […]
In brief, cultured cells at above about 80% confluence will be removed from their flasks (80 cm^2) with a disposable cell scraper and will be placed in 10 mL of 50 mM Tris-HCl buffer, pH 7.4, 4° C. […] Nonspecific binding will be assessed in parallel incubations in the presence of 300 μM nicotine. […] The filter-retained radioactivity will be measured by liquid scintillation counting. […] Data from saturation and competition binding assays will be analyzed using Prism 4 (GraphPad Software, San Diego, Calif.).

Compound: Clc1ccc(C2CC3CCC2N3)cn1 (stereo not shown) [Epibatidine]
- analgesic potency relative to morphine [1]: ~200 times

Compound: OCCCCC#Cc1cncc(OCC2CCN2)c1 (stereo not shown) [sazetidine A]
- stability of the HCl salt on exposure to air [2]: immediately resulted in decomposition
- agonist activity at α4β2 nAChRs (α4β2 nAChRs [3]): only low agonist activity

Compound: OCCCCc1cn(-c2cncc(OCC3CCN3)c2)nn1 (stereo not shown) [triazetidine O]
- decrease in Ki relative to sazetidine A (α4β2 nAChRs [4]): approximately 10 fold
